pIC50: −log10 of the molar value. Strand notation (5' to 3'): a small letter for the sugar, then the base; units joined by * are phosphorothioate-linked, units joined directly phosphodiester-linked; [ ] holds rarer units or linkages, { } end groups; capitals alone tell only the bases. e = 2'-O-(2-methoxyethyl) (MOE); k = constrained ethyl (cEt); [5mC] = 5-methylcytosine; d = 2'-deoxy (DNA)
Columns and labels:
[1] = test system: human PKK mRNA; test: Dose-dependent antisense inhibition of human PKK in HepaRG cells, 0.11-3.00 uM (Example 6); type: cell-based; settings: for pIC50: 0.11-3.00 μM; for percent inhibition of PKK mRNA, 0.11 μM / percent inhibition of PKK mRNA, 0.33 μM / percent inhibition of PKK mRNA, 1.00 μM / percent inhibition of PKK mRNA, 3.00 μM: electroporation, approx. 16 hours, relative to untreated control cells
Protocol: Cells were plated at a density of 20,000 cells per well and transfected using electroporation with 0.11 μM, 0.33 μM, 1.00 μM, and 3.00 μM concentrations of antisense oligonucleotide. After a treatment period of approximately 16 hours, RNA was isolated from the cells and PKK mRNA levels were measured by quantitative real-time PCR. Human PKK primer probe set RTS3454 was used to measure mRNA levels. PKK mRNA levels were adjusted according to total RNA content, as measured by RIBOGREEN®. The antisense oligonucleotides were tested in a series of experiments that had similar culture conditions.
The half maximal inhibitory concentration (IC50) of each oligonucleotide is also presented.

[2] = test system: human PKK mRNA; test: Antisense inhibition of human PKK mRNA in HepaRG cells, 1,000 nM, MOE/deoxy/cEt oligonucleotides (Example 3); type: cell-based
Outline: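 HepaRG cells at 20,000 per well electroporated with 1,000 nM 16-mer MOE/cEt/deoxy gapmers (phosphorothioate, 5-methylcytosine). After about 24 h, PKK mRNA measured by qRT-PCR with primer probe set RTS3454, normalized to RIBOGREEN total RNA. Reported as percent inhibition versus untreated cells.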

[3] = HepaRG cells, electroporation with 1,000 nM antisense oligonucleotide, approximately 24 hours, primer probe set RTS3454, relative to untreated control cells, experiment of Table 24
[4] = HepaRG cells, electroporation with 1,000 nM antisense oligonucleotide, approx. 24 hours, PKK mRNA by RT-PCR (RTS3454), relative to untreated control cells, Table 25 experiment

Substance | pIC50 [1] | percent inhibition of PKK mRNA, 0.11 μM [1] [%] | percent inhibition of PKK mRNA, 0.33 μM [1] [%] | percent inhibition of PKK mRNA, 1.00 μM [1] [%] | % inhibition ([2]; Table 20, HepaRG cells, electroporation with 1,000 nM antisense oligonucleotide, approximately 24 hours, PKK mRNA by RT-PCR (RTS3454), relative to untreated control cells) [%] | % inhibition ([2]; Table 22 experiment, HepaRG cells, electroporation with 1,000 nM antisense oligonucleotide, approx. 24 hours, PKK mRNA by RT-PCR (RTS3454), relative to untreated control cells) [%] | percent inhibition of PKK mRNA, 3.00 μM [1] [%] | % inhibition [2, 3] [%] | % inhibition ([2]; Table 28, HepaRG cells, 1,000 nM antisense oligonucleotide, human PKK mRNA) [%] | % inhibition ([2]; Table 19, HepaRG cells, electroporation with 1,000 nM antisense oligonucleotide, approximately 24 hours, PKK mRNA by RT-PCR (RTS3454), relative to untreated control cells) [%] | % inhibition [2, 4] [%] | % inhibition ([2]; HepaRG cells, electroporation with 1,000 nM antisense oligonucleotide, approximately 24 hours, primer probe set RTS3454, relative to untreated control cells, experiment of Table 23) [%]
547849 (antisense eA*eA*kT*dG*dT*d[5mC]*dT*d[5mC]*dG*dA*dT*dG*dG*k[5mC]*kA*eA) [compound 547849] | 6.52 | 36 | 52 | 67 | 79 | 90 | – | – | – | – | – | –
548069 (e[5mC]*e[5mC]*kA*dA*d[5mC]*dA*dG*dT*dT*dG*dG*dT*dA*kT*kA*eA; antisense) [compound 548069] | 5.72 | 6 | 0 | 27 | – | – | 66 | 57 | – | – | – | –
548521 (antisense e[5mC]*eA*kG*d[5mC]*dT*d[5mC]*d[5mC]*d[5mC]*dT*dT*dA*d[5mC]*dT*kA*kG*eG) [compound 548521] | < 5.52 | 21 | 0 | 3 | – | – | 1 | – | 61 | – | – | –
547998 (antisense e[5mC]*eT*kT*dG*dT*dG*dT*d[5mC]*d[5mC]*d[5mC]*dA*dT*dA*k[5mC]*kG*e[5mC]) [compound 547998] | – | 55 | 73 | 91 | – | – | 91 | 82 | – | – | – | –
548128 (eA*eT*kT*dG*d[5mC]*d[5mC]*dT*dA*dG*dA*d[5mC]*dT*d[5mC]*kT*kG*eG; antisense) [compound 548128] | 5.96 | 14 | 29 | 49 | – | – | 66 | – | – | 55 | – | –
548174 (eT*e[5mC]*kT*d[5mC]*dA*dG*dT*dT*dG*d[5mC]*dG*dA*d[5mC]*k[5mC]*kT*e[5mC]; antisense) [compound 548174] | 5.70 | 20 | 18 | 29 | – | – | 62 | – | – | – | 68 | –
548047 (eG*eA*kT*dA*dT*d[5mC]*dA*dT*dG*dA*dT*dT*d[5mC]*k[5mC]*k[5mC]*eT; antisense) [compound 548047] | – | 50 | 62 | 76 | – | – | 95 | 83 | – | – | – | –
548155 (e[5mC]*eG*kT*dG*d[5mC]*dT*dG*dA*dA*dA*dG*d[5mC]*dG*kG*kG*e[5mC]; antisense) [compound 548155] | 6.52 | 49 | 50 | 70 | – | – | 81 | – | – | – | 76 | –
547948 (eA*eG*kG*dA*dA*d[5mC]*dT*dT*dG*dG*dT*dG*dT*kG*k[5mC]*e[5mC]; antisense) [compound 547948] | – | 60 | 80 | 88 | – | – | 97 | – | – | – | – | 77

From patent US11840686B2, “Modulation of prekallikrein (PKK) expression” (Ionis Pharmaceuticals, Inc., priority 2013, dated 2023)
